From ChEMBL document CHEMBL1921728, “β-PNA: peptide nucleic acid (PNA) with a chiral center at the β-position of the PNA backbone” (Bioorg Med Chem Lett, 2011)

Experiments:
Nucleic Acid = assay: Binding affinity to 5'-AGTGATCTAC-3' DNA assessed as melting temperature at 5 uM at pH 7.4 by thermal denaturation assay; type: nucleic-acid assay
[1] = Solubility of the compound in water; type: physicochemical

Compound | Tm (Nucleic Acid) [°C] | solubility [1] [µM]
Cc1cn(CC(=O)N(CC(=O)NCCN(CC(=O)NCCN(CC(=O)NCCN(CC(=O)NC[C@H](C)N(CC(=O)N[C@@H](CCCCN)C(N)=O)C(=O)Cn2cc(C)c(=O)[nH]c2=O)C(=O)Cn2ccc(N)nc2=O)C(=O)Cn2cnc3c(N)ncnc32)C(=O)Cn2ccc(N)nc2=O)[C@@H](C)CNC(=O)CN(CCNC(=O)CN(CCNC(=O)CN(CCNC(=O)CN(C(=O)Cn2cc(C)c(=O)[nH]c2=O)[C@@H](C)CNC(=O)CN(CCN)C(=O)Cn2cnc3c(=O)[nH]c(N)nc32)C(=O)Cn2cnc3c(N)ncnc32)C(=O)Cn2cnc3c(=O)[nH]c(N)nc32)C(=O)Cn2cnc3c(N)ncnc32)c(=O)[nH]c1=O | 51 | > 500
Cc1cn(CC(=O)N(CC(=O)NCCN(CC(=O)NCCN(CC(=O)NCCN(CC(=O)NC[C@@H](C)N(CC(=O)N[C@H](CCCCN)C(N)=O)C(=O)Cn2cc(C)c(=O)[nH]c2=O)C(=O)Cn2ccc(N)nc2=O)C(=O)Cn2cnc3c(N)ncnc32)C(=O)Cn2ccc(N)nc2=O)[C@H](C)CNC(=O)CN(CCNC(=O)CN(CCNC(=O)CN(CCNC(=O)CN(C(=O)Cn2cc(C)c(=O)[nH]c2=O)[C@H](C)CNC(=O)CN(CCN)C(=O)Cn2cnc3c(=O)[nH]c(N)nc32)C(=O)Cn2cnc3c(N)ncnc32)C(=O)Cn2cnc3c(=O)[nH]c(N)nc32)C(=O)Cn2cnc3c(N)ncnc32)c(=O)[nH]c1=O |  | > 500
Cc1cn(CC(=O)N(CCNC(=O)CN(CCNC(=O)CN(CCNC(=O)CN(CCNC(=O)CN(CCNC(=O)CN(CCN)C(=O)Cn2cnc3c(=O)[nH]c(N)nc32)C(=O)Cn2cc(C)c(=O)[nH]c2=O)C(=O)Cn2cnc3c(N)ncnc32)C(=O)Cn2cnc3c(=O)[nH]c(N)nc32)C(=O)Cn2cnc3c(N)ncnc32)CC(=O)NCCN(CC(=O)NCCN(CC(=O)NCCN(CC(=O)NCCN(CC(=O)N[C@@H](CCCCN)C(N)=O)C(=O)Cn2cc(C)c(=O)[nH]c2=O)C(=O)Cn2ccc(N)nc2=O)C(=O)Cn2cnc3c(N)ncnc32)C(=O)Cn2ccc(N)nc2=O)c(=O)[nH]c1=O | 51.4 | > 500
